What was measured:
TNF-α = experiment: Production of TNF-α by macrophage cell line RAW264.7 stimulated with IFN-γ and LPS; type: cell-based; conditions: data not shown
Description: Glycerin enhanced the production of TNF-α in a concentration-dependent manner and inhibited the production of ICAM-1 molecule.

[1] = tested on: Mouse fibroblast cells (L-929); experiment: Test for cell protection (Alamar Blue); type: cell-based; conditions: 1% in D-MEM before one-hour drying
Description: To examine the influence of the syrup containing saccharide derivatives of α,α-trehalose, prepared in Example 6, on cell protection, the following experiment was carried out. […] As controls, control media containing D-MEM supplemented with 10% fetal calf serum and optionally containing 1% glycerin were prepared. The control mediums were added in the medium-removed wells of the remaining four plates, respectively. The cells were cultured for one day, dried for one hour in such a manner of keeping in opened plate under the sterile condition after the medium was removed from the wells by aspiration. Then, the cells were cultured in D-MEM supplemented with 10% fetal calf serum for three days while changing the medium once a day. The resulting plates were subjected to the measurement of cell amount of each well using “Alamar Blue” commercialized by Wako Pure Chemical Industries, Ltd., Osaka, Japan, just after the drying, and four hours, one day, two days or three days after the drying. […] In detail, the medium was added to each well in an amount of 4 ml. One plate was used for each measurement for the amount of cells treated with the test medium or the two control mediums. […] As evidence from the result in Table 10, the test medium or the control media increased the rate of cell proliferation of fibroblast cells. The control medium containing 1% of glycerin increased cell amount almost equal to the control medium containing only D-MEM. […] Influence caused by UV-irradiation was examined in the same manner as above instead of exposure to a drying condition (data not shown).

[2] = Test for absorbing or releasing moisture (comparison with usual moisturizing agents); type: physicochemical; conditions: 75% sample, after RH 60% for 216 hours
Description: The syrup containing saccharide derivatives of α,α-trehalose was confirmed to have a satisfactory property of absorbing and releasing moisture. To compare other saccharide used as a usual moisturizing agent for cosmetics, the following experiment was carried out. Test samples, containing 75%, on a dry solid basis, of either of the syrup prepared in Example 6, concentrated glycerin, sorbitol or maltitol, were prepared. About 1 g of each solution was placed in two containers. The containers were preciously weighed and kept at RH 60% for 216 hours. One of containers was kept at RH 80% and the other container was kept at PH 33%. After 24 hours or 168 hours, they were weighed.

[3] = tested on: crude water-insoluble glucan producing enzyme; experiment: Test for the production of water-insoluble glucan; type: biochemical, Streptococcus mutans OMZ-176
Description: To examine the effect of the syrup containing saccharide derivatives of α,α-trehalose, prepared in Example 6, on the production of water-insoluble glucan, the following experiment was carried out. According to usual method, Streptococcus mutans OMZ-176 was cultured to prepare a crude water-insoluble glucan producing enzyme solution (25 mg protein/ml). Test saccharide solutions were prepared by dissolving the syrup prepared in Example 1, the syrup prepared in Example 6, or α-maltosyl α,α-trehalose used in Experiment 1 in purified water to give a final concentration 2% on a dry solid basis. A half milliliter of one of the test saccharide solution was admixed with 0.25 ml of the crude water-insoluble glucan producing enzyme solution, 0.75 ml of 0.1 M phosphate buffer, and 0.5 ml of 2% sucrose. The resulting reaction mixture was placed in a new test tube (sized with 10 mm in diameter and 130 mm in height) slanted at an elevation angle of 30 degrees, and kept at 37° C. for 16 hours. The supernatant was gently collected. The remaining precipitate was washed with deionized water by centrifuging twice to collect a precipitate as adherent glucan. The washing solution and the above supernatant was mixed together and centrifuged at 5,000 rpm for 10 minutes to collect precipitate. The resulting precipitate was washed with deionized water and centrifuged to collect a non-adherent glucan. The adherent and non-adherent glucan were weighed. The total weight thereof was calculated as water-insoluble glucan. As a control, distilled water was used instead of the test saccharide solution. The water-insoluble glucan as control were weighed in the same manner. Inhibitory rate (%) of the production of water-insoluble glucan was calculated in such a manner of dividing the value of each test saccharide solution by that of the control, multiplying the resulting value by 100, and subtracting the resulting value from 100.

[4] = Hygroscopicity and solubility in water of the products; type: physicochemical
[5] = tested on: Streptococcus sobrinus 6715; experiment: Test for acidic fermentation; type: cell-based
Description: (§1) The resulting precipitate was washed with Stephan buffer (pH7.0), and centrifuged to collect a bacteria precipitate. Equal volume of Stephan buffer was added to the bacteria precipitate, followed by suspending the precipitate in the buffer to give a final concentration of 50% (v/v) in order to prepare two bacteria suspensions for testing. A half milliliter of the bacteria suspension was admixed with 0.5 ml of the above test saccharide solution and incubated at 37° C. for 90 minutes, while measuring the pH at 5, 15, 30, 60, and 90 minutes after the initiation of the culture. The Stephan's buffer was prepared by admixing 1 ml of “solution A” and “solution B” with distilled water to give a final volume 100 ml, and adjusting to pH7.0 (“solution A”: dissolving 71 g of Na2HPO4, 7.92 g of KOH and 68.1 g of KH2PO4 in distilled water to give a final volume 1,000 ml; and “solution B”: dissolving 45.4 g of KH2PO4, 3.2 g of MgSO4 2H2O and 100 ml of 1.2N HCl in distilled water to give a final volume 1,000 ml).

[6] = tested on: Streptococcus mutans OMZ-176; experiment: Test for acidic fermentation; type: cell-based
Description: as §1

[7] = Browning of L-ascorbic acid kept at 50° C. for 14 days (Experiment 3); type: physicochemical
Description: An aqueous solution further containing 10 parts by weight of glycerin (concentrated glycerin in cosmetic grade, commercialized by Kao Co., Ltd., Tokyo, Japan) instead of saccharide derivatives of α,α-trehalose was prepared. Three resulting solutions were kept at 50° C. under the shaded condition for 14 days. To examine browning, values of absorbance 420 nm of the test samples were measured by usual method and compared with that of the starting test samples. To examine the degree of coloring, relative values of test samples were calculated by comparing the value of differential absorbance of the solution containing only L-ascorbic acid, defined as 100%. Degree of coloring=(Difference of absorbance of test sample containing saccharide derivatives of α,α-trehalose or glycerin)/(Difference of absorbance of control sample containing only L-ascorbic acid)×100

[8] = 2% test saccharide solution with sucrose, 37° C., 16 hours
[9] = 0.7% test saccharide solution, 37° C., reaction time 0 minute
[10] = reaction time 5 minutes, listed as sucrose

OCC(O)CO [Glycerin, glycerin]
production of TNF-α (TNF-α): inhibited the production of TNF-α in a concentration-dependent manner
Rate of cell proliferation (%) ([1]; One day after dried): 165%
Rate of cell proliferation (%) ([1]; One hour (defined as 100%)): 100%
Rate of cell proliferation (%) ([1]; Three days after dried): 243%
Rate of cell proliferation (%) ([1]; Two days after dried): 235%
Relative weight change rate (%) ([2]; RH 33%, 0 hour): 0.0%
Relative weight change rate (%) ([2]; RH 33%, 24 hours): −13.8%
Relative weight change rate (%) ([2]; RH 33%, 168 hours): −18.8%
Relative weight change rate (%) ([2]; RH 80%, 0 hour): 0.0%
Relative weight change rate (%) ([2]; RH 80%, 24 hours): 8.2%

OC[C@@H](O)[C@@H](O[C@H]1O[C@H](CO)[C@@H](O)[C@H](O)[C@H]1O)[C@H](O)[C@@H](O)CO [Maltitol, maltitol]
Relative weight change rate (%) ([2]; RH 33%, 0 hour): 0.0%
Relative weight change rate (%) ([2]; RH 33%, 24 hours): −1.4%
Relative weight change rate (%) ([2]; RH 33%, 168 hours): −4.2%
Relative weight change rate (%) ([2]; RH 80%, 0 hour): 0.0%
Relative weight change rate (%) ([2]; RH 80%, 24 hours): 3.5%
Relative weight change rate (%) ([2]; RH 80%, 168 hours): 5.3%

OC[C@H]1O[C@H](O[C@H]2O[C@H](CO)[C@@H](O[C@H]3O[C@H](CO)[C@@H](O[C@H]4O[C@H](CO)[C@@H](O)[C@H](O)[C@H]4O)[C@H](O)[C@H]3O)[C@H](O)[C@H]2O)[C@H](O)[C@@H](O)[C@@H]1O [Example 5, α-maltosyl α,α-trehalose]
Production of water-insoluble glucan, Adhesive glucan [3, 8]: 1120 μg/10 mg sucrose
Production of water-insoluble glucan, Non-adhesive glucan [3, 8]: 1009 μg/10 mg sucrose
Production of water-insoluble glucan, Total glucan [3, 8]: 2129 μg/10 mg sucrose
Inhibition rate of production, Adhesive glucan ([3]; versus distilled water): (50) %
Inhibition rate of production, Non-adhesive glucan ([3]; versus distilled water): (13) %
Inhibition rate of production, Total glucan ([3]; versus distilled water): (37) %
hygroscopicity [4]: low
solubility in water [4]: satisfactory
pH [5, 9]: 6.72
pH ([5]; reaction time 5 minutes): 6.70
pH ([5]; reaction time 15 minutes): 6.64
pH ([5]; reaction time 30 minutes): 6.58
pH ([5]; reaction time 60 minutes): 6.51
pH ([5]; reaction time 90 minutes): 6.43
pH [6, 9]: 6.72
pH ([6]; reaction time 5 minutes): 6.70
pH ([6]; reaction time 15 minutes): 6.64
pH ([6]; reaction time 30 minutes): 6.58
pH ([6]; reaction time 60 minutes): 6.51
pH ([6]; reaction time 90 minutes): 6.43

OC[C@H]1O[C@@](CO)(O[C@H]2O[C@H](CO)[C@@H](O)[C@H](O)[C@H]2O)[C@@H](O)[C@@H]1O [Sucrose, sucrose]
pH [5, 9]: 6.74
pH ([5]; reaction time 5 minutes): 4.18
pH [5, 10]: about 4.0
pH ([5]; reaction time 15 minutes): 3.87
pH ([5]; reaction time 30 minutes): 3.81
pH ([5]; reaction time 60 minutes): 3.82
pH ([5]; reaction time 90 minutes): 3.91
pH [6, 9]: 6.60
pH ([6]; reaction time 5 minutes): 4.05
pH [6, 10]: about 4.0
pH ([6]; reaction time 15 minutes): 3.97
pH ([6]; reaction time 30 minutes): 3.99
pH ([6]; reaction time 60 minutes): 3.99
pH ([6]; reaction time 90 minutes): 4.01

O=C1O[C@H]([C@@H](O)CO)C(O)=C1O [L-Ascorbic acid, L-ascorbic acid]
Absorbance of test sample kept after 14 days (420 nm) ([7]; 50° C., shaded, 14 days): 5.000
Difference of absorbance (420 nm) ([7]; 14 days minus starting): 4.999
Absorbance of starting test sample (420 nm) ([7]; pH 6.5 aqueous solution): 0.001
Degree of coloring (%) ([7]; relative to solution containing only L-ascorbic acid as 100%): 100%

OC[C@@H](O)[C@@H](O)[C@H](O)[C@@H](O)CO [Sorbitol, sorbitol]
Relative weight change rate (%) ([2]; RH 33%, 0 hour): 0.0%
Relative weight change rate (%) ([2]; RH 33%, 24 hours): −2.4%
Relative weight change rate (%) ([2]; RH 33%, 168 hours): −5.0%
Relative weight change rate (%) ([2]; RH 80%, 0 hour): 0.0%
Relative weight change rate (%) ([2]; RH 80%, 24 hours): 5.4%
Relative weight change rate (%) ([2]; RH 80%, 168 hours): 10.7%
